Data: US20030108610A1, “Methods and compositions for the delivery of pharmaceutical agents and/or the prevention of adhesions” (priority 1996, published 2003)

What was measured:
[1] = 20% w/w poloxamer 407F
Procedure: Hydrophilic co-surfactants in the form of fatty acid soaps (i.e. sodium oleate, sodium laurate, sodium caprate, and sodium caprylate) were obtained from Nu-Chek Prep. (Elysian, Minn.).
For phase behavior studies, samples were loaded into 5 ml Wheaton vacuoles (Fisher Scientific, Pittsburgh, Pa.), and flame-sealed. The vacuoles were then immersed in a constant temperature bath. For temperatures less than 60° C., phase behavior was determined in a water bath (Koehler, Bohemia, N.Y.). At higher temperatures an oil bath (Haake, model DC3, Germany) was utilized. Temperature was raised in two degree increments from ca. 1° C. to 120° C. Samples were allowed to equilibrate for at least 1 hour at constant temperature prior to examination. Since the cubic liquid crystalline phase is isotropic (i.e. not birefringent), the determination of the gel boundary is somewhat subjective. Once equilibrium was reached, the vials were simply inverted and gravity was allowed to determine if the sample was in the sol or gel state.

[2] = Drug solubilization in poloxamer 407-water systems, apparent distribution coefficient micellar/aqueous phase; format: physicochemical
Procedure: The next day the sample was warmed momentarily to 40° C. to hasten solubilization. This process was repeated two or three times to ensure saturation. […] Prior to analysis, the samples were filtered through a 0.2 μm nylon filter syringe to remove unsolubilized drug. Samples were assayed for solubilized drug concentrations by absorbance spectroscopy (see below).
Drug Concentration Determinations. The samples were diluted to a suitable concentration with ethanol (for water insoluble drugs) or DI water. Drug concentrations were measured at the appropriate wavelength for each drug (see Table I) using a UV/Vis spectrophotometer (Beckman model DU-65). Concentrations were determined using Beer's law from the appropriate calibration curve (Table II). Gentamicin sulfate determination was performed by the UCSD Medical Center laboratory.
Where S and So are the concentration of solubilized drug in the presence and absence of poloxamer, respectively.

[3] = In-vitro release rate of drugs in poloxamer gels; format: physicochemical; conditions: within the same poloxamer formulations
Procedure: In-vitro release rate of drugs in poloxamer gels. The in-vitro release rates of drugs in poloxamer-based gels were determined using a modified USP dissolution apparatus (Hanson Research model SR6) equipped with enhancer cells. […] Membranes (1.2 μm cellulose ester membranes, 25 mm diameter, type RAWP) were presoaked in phosphate buffer and placed on the cell. Approximately 0.6 mL of sample in the fluid sol phase was then loaded into each of the enhancer cells. The cells were subsequently closed and the gel phase was allowed to form at room temperature prior to introduction into the dissolution vessels. The dissolution paddles were rotated at a speed of 100 rpm (approximating the hydrodynamic stress found at the peritoneal cavity) and were positioned approximately 1 cm from the top of the cells for all experiments. The in-vitro release of drug from the gels was monitored over a period of 4 hr. One mL samples were collected every 0.5 hr. The vessel was refilled with fresh buffer every time a sample aliquot was removed, and each sample was run in duplicate.

Structure (SMILES) | soap concentration required to melt / completely suppress the 20% poloxamer 407F gel [1] [%] | partitioning between poloxamer micelle and bulk aqueous phase [2] | differences in diffusion coefficients or mean dissolution times (MDT) between drugs [3]
CCCCCCCC(=O)[O-].[Na+] [8:0 soap, sodium caprylate] | ~11.5 |  | 
CCCCCCCCCCCC(=O)[O-].[Na+] [12:0 soap, sodium laurate] | 2.5 |  | 
CCCCCCCCCC(=O)[O-].[Na+] [sodium caprate] | > 5 |  | 
Cc1ccc(C(=O)c2ccc(CC(=O)O)n2C)cc1 [sodium tolmetin, Tolmetin Sodium] |  | partitions almost entirely into the bulk aqueous phase | no differences were observed
